Assays:
Format in all cases: cell-based
cancer cell lines [1] = experiment: Garnett et al. drug screen re-analysed by TN/Agro/iBCR score; details: Garnett et al. study; for sensitivity (−log10[IC50]) of high TN score vs low TN score cell lines: dichotomy across median TN score; for sensitivity of high iBCR score vs low iBCR score cell lines: dichotomy across median iBCR score
Method: FIG. 24: Drug sensitivity of cancer cell lines according to the TN score. The large published study by Garnett et al. was investigated where the TN score was calculated for each cell line in the study as described in Methods. The cell lines were classified as high or low TN score according to the median TN score to compare the sensitivity of low TN score cell lines (white boxes) and high TN score cell lines (red boxes). Graphs were prepared using GraphPad® Prism showing sensitivity as −log 10[IC50] in boxes (with median marked by a line) and whiskers (marking the 1st and 3rd quartiles and outliers as dots according to Tukey method for plotting the whiskers and outliers). Unpaired two-tailed t test was used for statistical analysis.
FIG. 30: Drug sensitivity of cancer cell lines according to the iBCR score. The large published study by Garnett et al. was investigated where the iBCR score was calculated for each cell line from the Agro and TN scores. The cell lines were classified as high or low iBCR score according to the median iBCR score to compare the sensitivity of low iBCR score cell lines (white boxes) and […] (red boxes). Results according to low and high Agro score were also included.
(§1) Two large studies which treated large panels of cancer cell lines with large panels of anticancer drugs were investigated to determine whether cell lines with high Agro, TN or iBCR scores show different sensitivity to particular anticancer drugs in comparison to cancer cell lines with low Agro, TN or iBCR scores. Briefly, the datasets of gene expression profiling from Genentech (mRNA Cancer Cell Line Profiles GSE10843), Pfizer (Pfizer Molecular Profile Data for Cell Line GSE34211) and Broad Institute/Novartis (Cancer Cell Line Encyclopedia [CCLE] GSE3613) were obtained from GEO and imported into ArrayTools as described earlier. The Agro, TN and iBCR scores for all the cell lines profiled were calculated and cell lines were assigned as high or low for each of the scores based on dichotomy across the median in each dataset. For cell lines which were profiled in more than one dataset, the average scores were used. […] Statistical significance was determined from unpaired two-tailed t-test using GraphPad® Prism.
(§2) In the second approach, published studies which surveyed panels of molecular drugs against, cancer cell lines were analyzed. The Cancer Cell Line Encyclopedia (CCLE) study investigated the pharmacological profiles for 24 anticancer drugs across 479 cancer cell lines which were also profiled with gene expression arrays. We calculated the TN score for each cell line in this study and compared the sensitivity of these cell lines to the anticancer drugs according to the TN score. […] In a similar method, we also analyzed a second large study. Garnett et al., which tested 130 drugs against more than 600 cancer cell lines.

breast cancer cell lines = experiment: Screen of 24 anti-cancer drugs on 10 breast cancer cell lines (MTS/MTA, six days) re-analysed by iBCR score; details: 5 high vs 5 low iBCR score cell lines
Method: FIG. 47: The sensitivity of breast cancer cell lines treated with 24 drugs according to the iBCR score. Breast cancer cell lines (10 cell lines) were cultured in the absence or presence of escalating doses of 24 small molecular anti-cancer drugs. This published study was re-analyzed to compare the sensitivity (calculated as the −log IC50) between high iBCR score cell lines (5 cell lines: BT-549, MDA-MB-231, MDA-MB-436, MDA-MB-468 and BT-20) to low iBCR score cell lines (5 cell lines: Hs.578T, BT-474, MCF-7, T-47D, and ZR-75-1). The iBCR scores were calculated from the Agro and TN scores using the published gene expression dataset for 51 breast cancer cell lines (Neve et al., Cancer Cell, 2006). […] Statistical comparison was performed in GraphPad® Prism using two tailed unpaired t-test.
Breast cancer cell lines (10 cell lines); BT-549, MDA-MB-231, MDA-MB-436, MDA-MB-468, BT-20, Hs.578T, BT-474, MCF-7, T-47D, and ZR-75-1, were cultured in the absence or presence of escalating doses of 24 anti-cancer drugs. The survival of cells was determined six days in comparison to untreated cells using the MTS/MTA assay. The response of the cell lines to the drugs was analyzed in GraphPad® Prism using a dose response curve to calculate the log10 of IC50 (IC50 is the dose required to kill 50% of the cells). Sensitivity was presented as the −log10[IC50]. This drug screen which we published previously (Al-Ejeh et al., Oncotarget, 2014) was re-analyzed according to the iBCR score. The gene expression datasets of 51 breast cancer cell lines by Neve et al. (Cancer Cell, 2006), was analyzed to calculate the Agro and TN scores for each cell line to calculate the iBCR score. Each cell line was assigned as low of high iBCR score by dichotomy across the median of all the cell lines in the Neve et al. dataset. Based on the low or high iBCR score classification, the sensitivity of the 10 cell lines used in our screen was compared between high iBCR score cell lines (5 cell lines) to low iBCR score cell lines (5 cell lines). […] PLC[…] (U73122), INK (SP600125), PAK1 MEK (AS703026 and AZD6244), ERK5 (XMD 8-92 and BIX02188). HSP90 (17-AAa PF0429113 and AUY922), IGF1R (GSK1904529A) and EGFR (Afatinib). The results from our screen are in agreement with the higher sensitivity of high iBCR score cancer cell lines to HSP90, IGF1R and MEK inhibitors we identified from the two previously published large cell line studies.

cancer cell lines [2] = experiment: Cancer Cell Line Encyclopedia (CCLE) drug sensitivity re-analysed by TN/Agro/iBCR score; details: CCLE study; for sensitivity (IC50) of high TN score vs low TN score cell lines: dichotomy across median TN score
Method: (§3) FIG. 35: Sensitivity of cancer cell lines to anticancer drugs according to the TN score in the Cancer Cell Line Encyclopedia (CCLE) study. The gene expression data of the cancer cell lines in the study were analyzed to calculate the TN score for each cell line and were assigned to low or high TN score by dichotomy across the median. The IC50 for each of the 24 drugs used in the CCLE study was compared between high and low TN score cell lines and the data shown are those with statistical differences based on unpaired two-tailed t-test performed using GraphPad® Prism.
as §3, with “FIG. 42: Sensitivity of” for “FIG. 35: Sensitivity of”, “to the iBCR score in” for “to the TN score in”, “or high iBCR score by” for “or high TN score by”, “and low iBCR score cell” for “and low TN score cell”, “GraphPad® Prism. As this analysis was also done for the TN score (FIG. 35), results from analysis of the Agro score are also shown in the top row.” for “GraphPad® Prism.”
as §1, §2

SMILES | sensitivity (−log10[IC50]) of high TN score vs low TN score cell lines (cancer cell lines [1]) | sensitivity of high iBCR score vs low iBCR score cell lines (cancer cell lines [1]) | other results
CC1(C)CCC(c2ccc(Cl)cc2)=C(CN2CCN(c3ccc(C(=O)NS(=O)(=O)c4ccc(N[C@H](CCN5CCOCC5)CSc5ccccc5)c(S(=O)(=O)C(F)(F)F)c4)cc3)CC2)C1 [ABT-263] | less sensitive | less sensitive | 
C[C@]1(c2nc3c(C(N)=O)cccc3[nH]2)CCCN1 [ABT-888] | less sensitive | less sensitive | 
O=C(NC[C@H](O)CO)c1ccncc1Nc1ccc(I)cc1F [AS703026] |  |  | sensitivity (−log10[IC50]) of high iBCR score vs low iBCR score breast cancer cell lines (breast cancer cell lines): significantly more sensitive
CC1=C(/C=C/C(C)=C/C=C/C(C)=C/C(=O)O)C(C)(C)CCC1 [ATRA, all-trans retinoic acid] | less sensitive | less sensitive | 
CCNC(=O)c1noc(-c2cc(C(C)C)c(O)cc2O)c1-c1ccc(CN2CCOCC2)cc1 [AUY922] |  |  | sensitivity (−log10[IC50]) of high iBCR score vs low iBCR score breast cancer cell lines (breast cancer cell lines): significantly more sensitive
Cn1cnc2c(F)c(Nc3ccc(Br)cc3Cl)c(C(=O)NOCCO)cc21 [AZD6244] |  |  | sensitivity (−log10[IC50]) of high iBCR score vs low iBCR score breast cancer cell lines (breast cancer cell lines): significantly more sensitive
O=C(c1cc(Cc2n[nH]c(=O)c3ccccc23)ccc1F)N1CCN(C(=O)C2CC2)CC1 [AZD-2281] |  | less sensitive | 
CC[C@@H]1C(=O)N(C)c2cnc(Nc3ccc(C(=O)NC4CCN(C)CC4)cc3OC)nc2N1C1CCCC1 [B1-2536] |  | more sensitive | sensitivity of high Agro score vs low Agro score cell lines (cancer cell lines [1]): more sensitive
COc1ccc(-c2cc3nccn3c(Nc3ncccc3C(N)=O)n2)cc1OC [BAY613606] |  | less sensitive | 
Cn1c(=O)n(-c2ccc(C(C)(C)C#N)cc2)c2c3cc(-c4cnc5ccccc5c4)ccc3ncc21 [BEZ235] | more sensitive | more sensitive | 
Cc1ccc(-n2nc(C(C)(C)C)cc2NC(=O)Nc2ccc(OCCN3CCOCC3)c3ccccc23)cc1 [BIRB 0796] | less sensitive | less sensitive | 
Cc1cc(N2CCOCC2)cc2[nH]c(-c3c(NC[C@@H](O)c4cccc(Cl)c4)cc[nH]c3=O)nc12 [BMS-536924] | more sensitive | more sensitive | 
CN(NC(=O)CC(=O)NN(C)C(=S)c1ccccc1)C(=S)c1ccccc1 [Elesclomol] | sensitive |  | 
C#Cc1cccc(Nc2ncnc3cc(OCCOC)c(OCCOC)cc23)c1 [Erlotinib] |  |  | sensitivity (IC50) of high TN score vs low TN score cell lines (cancer cell lines [2]): more sensitive
CCc1cc(Nc2nccc(-c3c(-c4ccc(OC)c(C(=O)Nc5c(F)cccc5F)c4)nc4ccccn34)n2)c(OC)cc1N1CCC(N2CCN(S(C)(=O)=O)CC2)CC1 [GSK1904529A] |  |  | sensitivity (−log10[IC50]) of high iBCR score vs low iBCR score breast cancer cell lines (breast cancer cell lines): significantly more sensitive
CC(C)(C)Cn1c(N)nc2ccc(-c3[nH]c(C(C)(C)C)nc3-c3ccc(F)cc3)nc21 [LY2228820] |  |  | sensitivity (−log10[IC50]) of high iBCR score vs low iBCR score breast cancer cell lines (breast cancer cell lines): significantly more sensitive
CS(=O)(=O)CCNCc1ccc(-c2ccc3ncnc(Nc4ccc(OCc5cccc(F)c5)c(Cl)c4)c3c2)o1 [Lapatinib] |  |  | sensitivity (IC50) of high TN score vs low TN score cell lines (cancer cell lines [2]): more sensitive
C[C@]1(O)C[C@@H](c2nc(-c3ccc4ccc(-c5ccccc5)nc4c3)c3c(N)nccn32)C1 [OSI-906] | less sensitive |  | 
CC1(C)CC(=O)c2c(C(F)(F)F)nn(-c3ccc(C(N)=O)c(N[C@H]4CC[C@H](OC(=O)CN)CC4)c3)c2C1 [PF0429113] |  |  | sensitivity (−log10[IC50]) of high iBCR score vs low iBCR score breast cancer cell lines (breast cancer cell lines): significantly more sensitive
COc1cc(F)c(F)c(Nc2ccc(I)cc2F)c1NS(=O)(=O)C1(C[C@H](O)CO)CC1 [RDEA-119] | more sensitive |  | 
Cn1cc(C2=C(c3ccc(Cl)cc3Cl)C(=O)NC2=O)c2ccccc21 [SB216763] |  |  | sensitivity of high Agro score vs low Agro score cell lines (cancer cell lines [1]): less sensitive
COc1cc(N2CCC(N3CCN(C)CC3)CC2)ccc1Nc1ncc(Cl)c(Nc2ccccc2S(=O)(=O)C(C)C)n1 [TAE684] |  |  | sensitivity (IC50) of high TN score vs low TN score cell lines (cancer cell lines [2]): less sensitive; sensitivity (IC50) of high iBCR score vs low iBCR score cell lines (cancer cell lines [2]; dichotomy across median iBCR score): less sensitive
COc1ccc2c(c1)CC[C@@H]1[C@@H]2CC[C@]2(C)[C@@H](NCCCCCCN3C(=O)C=CC3=O)CC[C@@H]12 [U73122] |  |  | sensitivity (−log10[IC50]) of high iBCR score vs low iBCR score breast cancer cell lines (breast cancer cell lines): significantly more sensitive
O=C(CCCCCCC(=O)Nc1ccccc1)NO [Vorinostat] |  | less sensitive | 
CCOc1cc(N2CCC(O)CC2)ccc1Nc1ncc2c(n1)N(C)c1ccccc1C(=O)N2C [XMD 8-92] |  |  | sensitivity (−log10[IC50]) of high iBCR score vs low iBCR score breast cancer cell lines (breast cancer cell lines): significantly more sensitive
CN(C)C(=N)N=C(N)N [metformin] | less sensitive | less sensitive | 
CN(Cc1cnc2nc(N)nc(N)c2n1)c1ccc(C(=O)N[C@@H](CCC(=O)O)C(=O)O)cc1 [methotrexate] | less sensitive | less sensitive | 
